# From article PMC4278708, “A Convenient Method for the Synthesis of (Prop-2-Ynyloxy)Benzene Derivatives via Reaction with Propargyl Bromide, Their Optimization, Scope and Biological Evaluation” (PLoS ONE, 2014)
# Like-named read-outs stand apart in the source and are kept apart here.
# Key:
# urease enzyme = urease enzyme (Canavalia ensiformis, UniProt P07374); test: biochemical; assay type: biochemical; conditions: for inhibition at 50 µg/mL: read-out: Percentage inhibition at 50 ug/mL; for inhibition at 100 µg/mL: read-out: Percentage inhibition at 100 ug/mL
# Description: Antiurease activity of the synthesized compounds was determined by using the modified phenol-hypochlorite method. Varying concentrations were used to prepare the urease inhibition curve of Thiourea (a known inhibitor of Urease) in the reaction mixture. Phosphate buffer solution of pH 7 containing 1 unit of enzyme was added about 200 µl in the test tube which was followed by the addition of 230 µl of phosphate buffer and 20 µl of thiourea from a scrupulous stock solution for the particular concentration of thiourea in the reaction mixture respectively. Test sample solutions were added instead of thiourea solution in case of test samples. The reaction mixture were mixed and incubated at 25°C for 5 min. 400 µl of urea stock (20 mM) was added in each test tube. In order to allow the action of urease on urea, all the test tubes were incubated at 40°C.
# Phenol hypochlorite reagent (1150 µl) was added after 10 min incubation at 40°C. Test tubes were again incubated at 56°C for 25 min. A blue coloured complex was formed in the reaction mixture. The samples were allowed to cool for 5 min and then their absorbance values were measured at 625 nm and the %age inhibition was calculated. Experiment was repeated three times to get the SD values.
# [1] = Nitric oxide (NO) scavenging activity (sodium nitropruside / Griess reagent); conditions: for IC50: NO scavenging; for Percentage scavenging activity at 50 ug/ml / Percentage scavenging activity at 100 ug/ml: NO
# Description: Solutions of known concentration were prepared by dissolving the synthesized compounds in appropriate solvents. A mixture of sample solution (20 µl), 10 mM sodium nitropruside solution (200 µl) and phosphate buffer of 7.4 pH (1780 µl) was taken in a dry test tube and the mixture was incubated at 37°C for 2 hours. 200 µl Griess reagent (0.3% Sulphanilic acid in glacial acetic acid, 0.1% Naphthyl ethylene diamine HCL (NED): Mixed equal volume of both solutions just before use) was added after the incubation period is over. After 20 min keeping the solution at room temperature, its absorbance at 528 nm was measured. Each sample was analyzed in triplicate. Positive control of any known antioxidant and control of all samples were run in parallel. Use of negative control was to calibrate the instrument. Sample blanks were also prepared in case if the samples were coloured. Correction in the absorbance values was made by subtracting the sample blank reading from the sample reading.
# Staphylococcus aureus = test: Antibacterial activity, disc diffusion method; assay type: cell-based; conditions: for IC50 / inhibition at 40 µg/mL / inhibition at 100 µg/mL: Staphylococcus aureus; for IC50: read-out: Staphylococcus aureus IC50 ug/ml; for inhibition at 40 µg/mL: read-out: Staphylococcus aureus 40 ug/ml (percentage inhibition); for inhibition at 100 µg/mL: read-out: Staphylococcus aureus 100 ug/ml (percentage inhibition)
# Source text: (§1) Disc diffusion method was adopted to test the antibacterial activity of synthesized compounds 2a-10 against […] different bacterial strains. Ampiciline was used as positive control to check antibacterial activity of synthesized compounds. The bacterial strains employed were: Escherichia coli, Bacillus subtillus, Shigella flexneri, Staphylococcus aureus, Pseudomonas aeroginosa and Salmonella typhi.
# (§2) Disc diffusion method was used for the determination of antibacterial activity. synthetic organic compounds were examined to evaluate their antibacterial potential against four different strains of bacteria i.e. Staphlococcus aureus (Gram + ive), Pseudomonas- aeroginosa (Gram−ive) and Escherichia coli (Gram−ive), Bacillus subtilis (Gram + ive), Salmonella typhi (Gram−ive) and Shigella flexneri (−ive). The synthetic organic compounds were dissolved in an appropriate solvent to get the solution of known concentration (5 µg/µl or 10 µg/µl). In order to prepare discs of different potencies known volume of extract/synthetic organic compound solution was applied on the discs, air dried and used. After preparation of the sterilized nutrient agar and nutrient broth medium, the sterilized nutrient agar medium was poured under aseptic conditions into sterile glass petri dishes/plates. A known volume of bacterial growth culture can also be poured on the surface of agar medium solidified in petri dishes. After inoculation petri plates were kept at room temperature for 15–30 minutes so that the poured medium is adsorbed. All the discs, including test sample, +ive and –ve controls were placed onto the inoculated nutrient agar medium solidified in petri dishes with the help of sterile forceps and incubated the petri plates at 37°C±2°C for 16–24 hours. Zone of inhibition was measured in mm using ordinary scale. Experiment was repeated three times to get the SD values.
# Bacillus subtillus = test: Antibacterial activity, disc diffusion method; assay type: cell-based; conditions: for inhibition at 100 µg/mL: 100 ug/ml, read-out: Bacillus subtillus 100 ug/ml (percentage inhibition); for IC50: read-out: Bacillus subtillus IC50 ug/ml
# Source text: as §1, §2
# urease enzyme, sequence (P07374 whole entry, looked up): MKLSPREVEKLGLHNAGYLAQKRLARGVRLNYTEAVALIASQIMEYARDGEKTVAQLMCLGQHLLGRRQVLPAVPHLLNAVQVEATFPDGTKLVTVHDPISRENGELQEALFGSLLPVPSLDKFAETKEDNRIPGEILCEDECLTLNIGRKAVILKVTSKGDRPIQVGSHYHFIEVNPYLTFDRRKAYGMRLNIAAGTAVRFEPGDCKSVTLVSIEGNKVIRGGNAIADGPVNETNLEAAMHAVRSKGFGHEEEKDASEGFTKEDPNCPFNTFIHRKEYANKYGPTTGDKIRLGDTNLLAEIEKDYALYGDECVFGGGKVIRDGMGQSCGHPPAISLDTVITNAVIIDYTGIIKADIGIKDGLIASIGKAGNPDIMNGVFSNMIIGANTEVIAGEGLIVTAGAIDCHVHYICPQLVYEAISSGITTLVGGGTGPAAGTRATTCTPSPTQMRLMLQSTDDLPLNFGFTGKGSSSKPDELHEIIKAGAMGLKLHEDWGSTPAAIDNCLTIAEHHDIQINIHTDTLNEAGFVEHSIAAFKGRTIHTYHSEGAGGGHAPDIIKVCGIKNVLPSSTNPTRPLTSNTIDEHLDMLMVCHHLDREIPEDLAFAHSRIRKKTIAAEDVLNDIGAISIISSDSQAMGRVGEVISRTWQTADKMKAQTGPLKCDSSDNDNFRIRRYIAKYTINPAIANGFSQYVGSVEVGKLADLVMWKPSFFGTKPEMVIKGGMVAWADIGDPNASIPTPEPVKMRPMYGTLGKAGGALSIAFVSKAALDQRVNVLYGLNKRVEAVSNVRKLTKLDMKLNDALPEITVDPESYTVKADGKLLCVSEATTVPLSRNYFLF
Compound,IC50 (urease enzyme),inhibition at 50 µg/mL (urease enzyme),inhibition at 100 µg/mL (urease enzyme),IC50 [1],Percentage scavenging activity at 50 ug/ml [1],Percentage scavenging activity at 100 ug/ml [1],activity against Staphylococcus aureus (in words) (Staphylococcus aureus),inhibition at 40 µg/mL (Staphylococcus aureus),inhibition at 100 µg/mL (Staphylococcus aureus),also measured
"C#CCOc1ccc(C(C)(C)c2ccc(OCC#C)cc2)cc1 [Compound 4a, 4,4′-(propane-2,2-diyl)bis((prop-2-ynyloxy)benzene)]",205 µM,37 ± 0.34%,89.42 ± 0.05%,64.4 µg/mL,40±0.09%,74.53±0.13%,moderate activity,29.1 ± 0.6%,50 ± 0.2%,IC50 (Staphylococcus aureus): 97.7 µg/mL; activity against Bacillus subtillus (in words) (Bacillus subtillus): inactive; inhibition at 100 µg/mL (Bacillus subtillus; Bacillus): 33.9 ± 0.45%
"C#CCOc1cccc2ccccc12 [Compound 6a, 1-(prop-2-ynyloxy)naphthalene]",373 µM,41.33 ± 0.41%,65.3 ± 0.18%,83 µg/mL,24.33±0.12%,63.17±0.19%,inactive,-1.85%,10 ± 0.9%,IC50 (Bacillus subtillus; Bacillus): 92.6 µg/mL
"C#CCOc1ccc2ccccc2c1 [Compound 6b, 2-(prop-2-ynyloxy)naphthalene]",–,32 ± 0.38%,41.9 ± 0.313%,76.16 µg/mL,33.33±0.1%,65.19±0.18%,–,21.4 ± 0.4%,51 ± 0.3%,"urease inhibition activity (in words) (urease enzyme; 50 and 100 µg/ml tested): did not show any satisfactory results; IC50 (Staphylococcus aureus): 98.3 µg/mL; inhibition at 50 µg/mL (Bacillus subtillus; Bacillus, 50 ug/ml, read-out: Bacillus subtillus 50 ug/ml (percentage inhibition)): 39.06 ± 0.05%; inhibition at 100 µg/mL (Bacillus subtillus; Bacillus): 57.8 ± 0.26%; IC50 (Bacillus subtillus; Bacillus): 79.2 µg/mL"
"C#CCNc1cccc2ccccc12 [Compound 8d, N-(prop-2-ynyl)naphthalen-1-amine]",506 µM,43 ± 0.42%,51.5 ± 0.26%,–,7.67±0.13%,38.38±0.32%,–,5.85 ± 0.8%,31 ± 0.2%,nitric oxide scavenging activity (in words) [1]: did not show any significant results
"NC(N)=S [Thiourea, reference compound]",–,–,–,–,–,–,–,–,–,"IC50 (urease enzyme; urease): 23.3 µg/mL; Percentage inhibition at 20 ug/ml (urease enzyme; urease, 20 ug/ml (positive control)): 47.1±0.31%; Percentage inhibition at 40 ug/ml (urease enzyme; urease, 40 ug/ml (positive control)): 65±0.01%"
"O=C1O[C@H]([C@@H](O)CO)C(O)=C1O [Vit.C control, Ascorbic acid, reference compound]",–,–,–,50.43 µg/mL,38.5±0.16%,84.1±0.12%,–,–,–,–
N-(prop-2-ynyl)-4-(prop-2-ynyloxy)aniline [Compound 10],–,–,–,78.1 µg/mL,30±0.10%,65.5±0.18%,moderate activity,–,–,"IC50 (urease enzyme; urease): 89.6 µg/mL; Percentage inhibition at 50 ug/mL (urease enzyme; urease, 50 ug/mL): 25±0.45%; Percentage inhibition at 100 ug/mL (urease enzyme; urease, 100 ug/mL): 56.5±0.234%; Staphylococcus aureus IC50 (Staphylococcus aureus): 96.3 µg/mL; Staphylococcus aureus 40 ug/ml (percentage inhibition) (Staphylococcus aureus; 40 ug/ml): 24.4±0.11%; Staphylococcus aureus 100 ug/ml (percentage inhibition) (Staphylococcus aureus; 100 ug/ml): 52±0.1%; Bacillus subtillus IC50 (Bacillus subtillus): 98.5 µg/mL; activity against Bacillus subtillus (in words) (Bacillus subtillus): batter activity; Bacillus subtillus 50 ug/ml (percentage inhibition) (Bacillus subtillus; 50 ug/ml): 6.13±0.35%"
